According to patent US11458123B2 (Arvinas, Inc., priority 2016, dated 2022):

These molecules were tested on tau protein (assay: Tau protein in vitro degradation assay (Western blot, Tau-13 antibody)). Conditions: SK-N-SH cells; 72 hours of incubation; tested at 300 nM, 100 nM, 33 nM and 11 nM; Western blot, Tau-13 antibody.
Format: cell-based, human
Outline: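 Tau degradation read by Tau-13 Western blot (detects all human tau forms) of SDS-PAGE-resolved lysates from SK-N-SH cells. Cells were plated at least 18 h before 72 h exposure to PROTACs at either 1000/300/100 nM or 300/100/33/11 nM.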

| SMILES | Degradation activity* (highest amount of degradation observed at any dosage; tau protein remaining) | Degradation activity (tau protein remaining; highest amount of degradation observed at any dosage) |
| --- | --- | --- |
| Cn1c2ccncc2c2ccc(-c3ccc(OCCCOc4ccc(C#CCCCCOc5ccc6c(c5)C(=O)N(C5CCC(=O)NC5=O)C6=O)cn4)nc3)cc21 (stereo not shown) [Compound 146, 2-(2,6-dioxopiperidin-3-yl)-5-((6-(6-(3-((5-(5-methyl-5H-pyrido[4,3-b]indol-7-yl)pyridin-2-yl)oxy)propoxy)pyridin-3-yl)hex-5-yn-1-yl)oxy)isoindoline-1,3-dione] | C (>80% tau protein remaining after 72 hours of incubation with the test compound) | – |
| Cn1c2ccncc2c2ccc(-c3ccc(OCCOCCOCCOCCOCCOCCOCCOc4ccc5c(c4)C(=O)N(C4CCC(=O)NC4=O)C5=O)nc3)cc21 (stereo not shown) [Compound 132, 2-(2,6-dioxopiperidin-3-yl)-5-((20-((5-(5-methyl-5H-pyrido[4,3-b]indol-7-yl)pyridin-2-yl)oxy)-3,6,9,12,15,18-hexaoxaicosyl)oxy)isoindoline-1,3-dione] | A (≤50% tau protein remaining after 72 hours of incubation with the test compound) | – |
| Cn1c2ccncc2c2ccc(-c3ccc(CCCOCCOCCOCCOCCOc4ccc5c(c4)C(=O)N(C4CCC(=O)NC4=O)C5=O)nc3)cc21 (stereo not shown) [Compound 74, 2-(2,6-dioxopiperidin-3-yl)-5-((15-(5-(5-methyl-5H-pyrido[4,3-b]indol-7-yl)pyridin-2-yl)-3,6,9,12-tetraoxapentadecyl)oxy)isoindoline-1,3-dione] | A (≤50% tau protein remaining after 72 hours of incubation with the test compound) | – |
| Cn1c2ccncc2c2ccc(-c3cnc(OCCOCCOCCOCCOCCOc4ccc5c(c4)C(=O)N(C4CCC(=O)NC4=O)C5=O)c(Cl)c3)cc21 (stereo not shown) [Compound 92, 5-((14-((3-chloro-5-(5-methyl-5H-pyrido[4,3-b]indol-7-yl)pyridin-2-yl)oxy)-3,6,9,12-tetraoxatetradecyl)oxy)-2-(2,6-dioxopiperidin-3-yl)isoindoline-1,3-dione] | A (≤50% tau protein remaining after 72 hours of incubation with the test compound) | – |
| Cn1c2ccncc2c2ccc(-c3ccc(N4CCC(CCN5CCN(c6ccc7c(c6)CN(C6CCC(=O)NC6=O)C7=O)CC5)CC4)nc3)cc21 (stereo not shown) [Compound 128, 3-(5-(4-(2-(1-(5-(5-methyl-5H-pyrido[4,3-b]indol-7-yl)pyridin-2-yl)piperidin-4-yl)ethyl)piperazin-1-yl)-1-oxoisoindolin-2-yl)piperidine-2,6-dione] | C (>80% tau protein remaining after 72 hours of incubation with the test compound) | – |
| O=C1CCC(N2C(=O)c3ccc(OCCOCCOCCOCCOCCOc4ccc(-c5ccc6c(c5)[nH]c5ccncc56)cn4)cc3C2=O)C(=O)N1 (stereo not shown) [Compound 51, 5-((14-((5-(5H-pyrido[4,3-b]indol-7-yl)pyridin-2-yl)oxy)-3,6,9,12-tetraoxatetradecyl)oxy)-2-(2,6-dioxopiperidin-3-yl)isoindoline-1,3-dione] | A (≤50% tau protein remaining after 72 hours of incubation with the test compound) | – |
| Cn1c2ccncc2c2ccc(-c3ccc(O[C@H]4C[C@H](OCCOCCOCCOC5CN(c6ccc7c(c6)C(=O)N(C6CCC(=O)NC6=O)C7=O)C5)C4)nc3)cc21 (stereo partly shown) [Compound 161, 2-(2,6-dioxopiperidin-3-yl)-5-(3-(2-(2-(2-((1r,3r)-3-((5-(5-methyl-5H-pyrido[4,3-b]indol-7-yl)pyridin-2-yl)oxy)cyclobutoxy)ethoxy)ethoxy)ethoxy)azetidin-1-yl)isoindoline-1,3-dione] | C (>80% tau protein remaining after 72 hours of incubation with the test compound) | – |
| Cn1c2ccncc2c2ccc(-c3ccc(OCCCCCOCCCCCC4CCN(c5ccc6c(c5)C(=O)N(C5CCC(=O)NC5=O)C6=O)CC4)nc3)cc21 (stereo not shown) [Compound 75, 2-(2,6-dioxopiperidin-3-yl)-5-(4-(5-((5-((5-(5-methyl-5H-pyrido[4,3-b]indol-7-yl)pyridin-2-yl)oxy)pentyl)oxy)pentyl)piperidin-1-yl)isoindoline-1,3-dione] | C (>80% tau protein remaining after 72 hours of incubation with the test compound) | – |
| Cn1c2ccncc2c2ccc(-c3ccc(O[C@H]4C[C@H](OC5CCN(CC(F)(F)CCCOc6ccc7c(c6)C(=O)N(C6CCC(=O)NC6=O)C7=O)CC5)C4)nc3)cc21 (stereo partly shown) [Compound 171, 5-((4,4-difluoro-5-(4-((1r,3r)-3-((5-(5-methyl-5H-pyrido[4,3-b]indol-7-yl)pyridin-2-yl)oxy)cyclobutoxy)piperidin-1-yl)pentyl)oxy)-2-(2,6-dioxopiperidin-3-yl)isoindoline-1,3-dione] | – | C (>80% tau protein remaining after 72 hours of incubation with the test compound) |

Same assay, conditions: SK-N-SH cells; 72 hours of incubation; tested at 1000 nM, 300 nM and 100 nM

| SMILES | Activity* (highest amount of degradation observed at any dosage, as tau protein remaining) |
| --- | --- |
| Cc1ncoc1-c1ccc([C@H](C)NC(=O)[C@@H]2C[C@@H](O)CN2C(=O)[C@@H](NC(=O)COCCOCCOCCOCCN2CCN(c3ccn4c(n3)nc3ccccc34)CC2)C(C)(C)C)cc1 [Compound 20, (2S,4R)-1-((S)-17-(4-(benzo[4,5]imidazo[1,2-a]pyrimidin-2-yl)piperazin-1-yl)-2-(tert-butyl)-4-oxo-6,9,12,15-tetraoxa-3-azaheptadecanoyl)-4-hydroxy-N—((S)-1-(4-(4-methyloxazol-5-yl)phenyl)ethyl)pyrrolidine-2-carboxamide] | C (>80% tau protein remaining after 72 hours of incubation with the test compound) |
| Cc1ncsc1-c1ccc(CNC(=O)[C@@H]2C[C@@H](O)CN2C(=O)[C@@H](NC(=O)COCCOCCOCC(=O)N2CCN(c3ccn4c(n3)nc3ccccc34)CC2)C(C)(C)C)cc1 [Compound 10] | C (>80% tau protein remaining after 72 hours of incubation with the test compound) |
| CN(C)c1ccc(-c2ccc3cc(OCCCOCCOCCOCCOCCNc4cccc5c4C(=O)N(C4CCC(=O)NC4=O)C5=O)ccc3n2)cc1 (stereo not shown) [Compound 40, 4-(15-(2-(4-(dimethylamino)phenyl)quinolin-6-yloxy)-3,6,9,12-tetraoxapentadecylamino)-2-(2,6-dioxopiperidin-3-yl)isoindoline-1,3-dione] | C (>80% tau protein remaining after 72 hours of incubation with the test compound) |
| Cc1ncoc1-c1ccc([C@H](C)NC(=O)[C@@H]2C[C@@H](O)CN2C(=O)[C@@H](NC(=O)COCCOCCOCCN2CCN(c3ccn4c(n3)nc3ccccc34)CC2)C(C)(C)C)cc1 [Compound 19, (2S,4R)-1-((S)-14-(4-(benzo[4,5]imidazo[1,2-a]pyrimidin-2-yl)piperazin-1-yl)-2-(tert-butyl)-4-oxo-6,9,12-trioxa-3-azatetradecanoyl)-4-hydroxy-N—((S)-1-(4-(4-methyloxazol-5-yl)phenyl)ethyl)pyrrolidine-2-carboxamide] | C (>80% tau protein remaining after 72 hours of incubation with the test compound) |
